Measured values reported in ChEMBL document CHEMBL1134820, “Synthesis of antitumor dendritic imides” (Bioorg Med Chem Lett, 2001).

Key:
[1] = tested on: HT-29; test: Cytotoxic effect on human colon carcinoma HT-29 cell line; type: functional; conditions: read-out: ID50 (the source's name)
[2] = target: Tyrosine-protein kinase Lck (Homo sapiens, UniProt P06239); test: Inhibition of lck catalytic domain expressed in baculovirus
Tyrosine-protein kinase Lck, sequence (P06239 whole entry, the tested form may be a part): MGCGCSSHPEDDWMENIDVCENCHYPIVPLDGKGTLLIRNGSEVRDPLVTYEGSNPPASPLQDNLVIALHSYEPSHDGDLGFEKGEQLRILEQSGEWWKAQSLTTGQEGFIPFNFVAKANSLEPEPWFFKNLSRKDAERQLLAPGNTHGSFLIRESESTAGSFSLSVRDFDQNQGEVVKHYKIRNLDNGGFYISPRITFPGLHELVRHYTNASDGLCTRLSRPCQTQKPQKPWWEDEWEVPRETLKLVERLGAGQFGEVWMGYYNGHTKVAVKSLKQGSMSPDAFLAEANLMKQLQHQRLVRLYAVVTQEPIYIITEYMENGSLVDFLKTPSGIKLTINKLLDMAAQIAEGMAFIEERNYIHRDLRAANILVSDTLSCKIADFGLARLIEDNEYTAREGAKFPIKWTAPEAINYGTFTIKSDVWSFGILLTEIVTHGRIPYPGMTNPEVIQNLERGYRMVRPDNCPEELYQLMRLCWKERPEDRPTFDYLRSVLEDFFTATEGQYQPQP

Row | SMILES | IC50 [1] [µM] | IC50 [2] [µM]
1 | N#CCCN(CCC#N)CCCN(CCCN(CCC#N)CCC#N)CCCN(CCCN(CCCN(CCC#N)CCC#N)CCCN(CCC#N)CCC#N)CCN1C(=O)c2cccc3cc(N)cc(c23)C1=O | > 100 | –
2 | NCCCN(CCCN)CCCN(CCCN(CCCN)CCCN)CCCN(CCCN(CCCN(CCCN)CCCN)CCCN(CCCN)CCCN)CCN1C(=O)c2cccc3cccc(c23)C1=O | 44 | –
3 | NCCCN(CCCN)CCCN(CCCN(CCCN)CCCN)CCCN(CCCN(CCCN(CCCN)CCCN)CCCN(CCCN)CCCN)CCN1C(=O)C(c2ccccc2)=C(c2ccccc2)C1=O | 100 | –
4 | O=C1c2cccc3cccc(c23)C(=O)N1CCNCCCNCCN1C(=O)c2cccc3cccc(c23)C1=O [ELINAFIDE] | 0.014 | –
5 | N#CCCN(CCC#N)CCCN(CCCN(CCC#N)CCC#N)CCCN(CCN)CCCN(CCCN(CCC#N)CCC#N)CCCN(CCC#N)CCC#N | > 100 | –
6 | N#CCCN(CCC#N)CCCN(CCCN(CCC#N)CCC#N)CCCN(CCCN(CCCN(CCC#N)CCC#N)CCCN(CCC#N)CCC#N)CCN1C(=O)c2cccc3cccc(c23)C1=O | > 100 | > 50
7 | CN(C)CCN1C(=O)c2cccc3cc(N)cc(c23)C1=O [AMONAFIDE] | 38 | –
8 | N#CCCN(CCC#N)CCCN(CCCN(CCC#N)CCC#N)CCCN(CCCN(CCCN(CCC#N)CCC#N)CCCN(CCC#N)CCC#N)CCN1C(=O)c2cccc3cc([N+](=O)[O-])cc(c23)C1=O | > 100 | –
9 | N#CCCN(CCC#N)CCCN(CCCN(CCC#N)CCC#N)CCCN(CCCN(CCCN(CCC#N)CCC#N)CCCN(CCC#N)CCC#N)CCN1C(=O)C(c2ccccc2)=C(c2ccccc2)C1=O | 57 | > 50
